# Experimental data: patent US20240230626A9, “METHOD FOR SCREENING POTENTIAL THERAPEUTIC AGENTS” (UNIVERSITEIT ANTWERPEN, priority 2021, published 2024)
# Tested on: hPSC21/MiaPaca2 co-culture
# Test: Co-culture of RFP-labelled MiaPaca2 cancer cells and GFP-labelled hPSC21 stellate cells, kinetic fluorescence imaging
# Type: cell-based, Human
# Excerpt: Pancreatic ductal adenocarcinoma (PDAC) MiaPaca2 cancer cells were transduced with Nuclight Red lentiviral reagent to stably express RFP. Human pancreatic stellate cells 21 (hPSC21) were transduced with the Nuclight Green lentiviral reagent to stably express GFP. Both cell lines were cultures in a 2:1 hPSC21/MiaPaca2 ratio in a 384-well ultra-low attachment plate and treated with the Rho-kinase inhibitor Y-27632, an inducer of a cancer associated fibroblast (CAF) like phenotype of stellate cells (Li et al., Aging, 2020). The cells were incubated at 37° C./5CO2 in the Tecan Spark Cyto multimode plate reader with imaging capabilities and BF, red and green fluorescent images were taken every hour for 48 hours.
smiles,measurement,setting,value
C[C@@H](N)[C@H]1CC[C@H](C(=O)Nc2ccncc2)CC1 [Y-27632],morphology versus control sample,"2:1 hPSC21/MiaPaca2, 384-well ultra-low attachment plate, imaged every hour for 48 hours (FIG. 7D)",activation and migration of hPSC21 towards the PDAC cancer cells
same,velocity of the objects inside the well,"2:1 hPSC21/MiaPaca2 co-culture, imaged every hour for 48 hours (FIG. 7B)",increased
same,number of merges of the objects inside the well,"2:1 hPSC21/MiaPaca2 co-culture, imaged every hour for 48 hours (FIG. 7C)",increased
